Experimental data reported in paper PMC7922224, “Searching for Small Molecules as Antibacterials: Non-Cytotoxic Diarylureas Analogues of Triclocarban” (Antibiotics, 2021).
≈ marks a conversion by molar mass, not a printed value.

Columns and labels:
E. coli 25922 [1] = experiment: MIC by broth microdilution (CLSI); assay type: cell-based; details: Escherichia coli, Gram-negative, 37 °C, 24 h, Mueller Hinton Broth
[2] = tested on: cancer cell lines (MCF-7, MDA-MB-231, HeLa, Ishikawa, A2058); experiment: MTT cell viability assay, panel of cancer cell lines; assay type: cell-based; details: Homo sapiens, all cancer cell lines used, 72 h, read-out: IC50 against the cancer cell lines
Text: In order to investigate the anticancer effects of compounds 1ab, 1bc and 1ce (TCC), we used different human cancer cell models, namely, two breast cancer cells (MCF-7 and MDA-MB-231), two uterine cancer cells (HeLa and Ishikawa) and the melanoma epithelial cells A2058.
(§1) Human MCF-7 and MDA-MB-231 breast cancer cells, HeLa and […] uterine carcinoma cells, A2058 melanoma epithelial cells, MCF-10A mammary epithelial cells and Hek-293 embryonic kidney epithelial cells were obtained from American Type Culture Collection (ATCC, Manassas, VA, USA). Estrogen receptor positive [(ER(+)] MCF-7 and triple negative MDA-MB-231 breast cancer cells were maintained in Dulbecco’s modified Eagle’s medium/nutrient mixture F-12 Ham (DMEM-F12) medium containing 2 mmol/L L-glutamine, 1 mg/mL penicillin-streptomycin and supplemented with 5% fetal bovine serum (FBS). HeLa epithelial cervix carcinoma cells, estrogen receptor negative [ER(-)], and Ishikawa endometrial adenocarcinoma cell, estrogen receptor positive [ER(+)], were kept in minimum essential medium (MEM), supplemented with 10% FBS, 100 U/mL penicillin/streptomycin and 1% non-essential amino acid. A2058 highly metastatic melanoma epithelial cells were kept in DMEM low glucose (1 g/L), supplemented with 20% FBS, 1% l-glutamine and 100 U/mL penicillin/streptomycin. MCF-10A mammary epithelial cells, were cultured in DMEM/F12 medium, supplemented with 5% horse serum (HS), 100 U/mL penicillin/streptomycin, […] hydrocortisone, 20 ng/mL human epidermal growth factor (hEGF), […] and […] cholera enterotoxin (Sigma-Aldrich, Milan, Italy). Hek-293 embryonic kidney epithelial cells were cultured in DMEM high glucose (4.5 g/L), supplemented with 10% FBS, 1% l-glutamine and 100 U/mL penicillin/streptomycin. Cells were conserved at 37 °C in a humid atmosphere of 95% air and 5% CO2, and screened for contamination at regular intervals.
Cell viability was determined using the 3-(4,5-dimethylthiazol-2-y1)-2,5-diphenyltetrazolium bromide (MTT, Sigma-Aldrich, Milan, Italy) assay. […]

E. faecalis ATCC 29212 [3] = experiment: MIC by broth microdilution (CLSI); assay type: cell-based, Enterococcus faecalis; details: Enterococcus faecalis, ATCC29212; Gram-positive; 37 °C, 24 h, Mueller Hinton Broth; read-out: MIC E.f. 29212
Protocol: (§2) The in vitro Minimum Inhibitory Concentrations (MICs, μg/mL) were determined by the broth microdilution method according to the Clinical Laboratory Standards Institute (CLSI) guidelines. MIC values were recorded as the lowest concentration of compounds at which there was no optically detectable microorganism growth and evaluated by comparing the growth in each well visually with that of the growth in the control well for bacteria. All compounds were dissolved in dimethyl sulfoxide (DMSO) and were tested in a final concentration range of from 512 to 2 µg/mL. MICs for the reference antibiotic norfloxacin against quality control strains were used to confirm the validity of the screen. According to the CLSI guidelines, diphenylureas were tested in vitro against a panel of Gram-positive and Gram-negative bacteria belonging to the ATCC collection using the standard microdilution test for the determination of MICs. MICs of the synthesised compounds along with the parent compound TCC and with the standard antibiotic norfloxacin are listed in Table 1. The compounds were also analyzed in terms of molecular mass, logP (Table 1), number of hydrogen-bond donors and number of hydrogen-bond acceptors, and most of them obeyed Lipinski’s rule. […] Based on our results, it seems that the 3,4-dichloro-disubstitution pattern, which is present in TCC, is not crucial for activity. […] Moreover, the activity against Enterococcus faecalis was interesting. E. faecalis is a ubiquitous member of the healthy human gut microbiota and also a common opportunistic pathogen and leading cause of nosocomial infections. It has a high incidence for most infections, and the case numbers have been increasing in recent decades, likely due to its greater ability to persist in healthcare facilities and its higher abundance in the human gut microbiome. Kim et al. (2016) compared the bactericidal effects of plain and antibacterial soap containing 0.3% TCC. The authors found no significative difference between the effects of plain and medicated soap at either temperature, with the only exception of E. faecalis ATCC 19433 at 40 °C.
(§3) MICs (μg/mL) were determined by the broth microdilution method, using 96-well plates, according to CLSI [26]. Stock solutions of the investigated compounds were obtained by setting the concentration at the maximum possible value. Then, the stock solutions were diluted 1:10 with Mueller Hinton Broth (Oxoid, Italy). Afterwards, twofold serial dilutions in the suitable test medium were carried out to obtain a set of concentrations from 512 to 2 µg/mL in the wells. To obtain the stock solution, DMSO (100%) was employed as diluent. The following bacteria strains, available as freeze-dried discs, belonging to the ATCC collection, were used: Gram-positive: S. aureus ATCC 29213, 6538, and 6538P, E. faecalis ATCC 29212; Gram-negative: K. pneuomoniae ATCC 13883, P. aeruginosa ATCC 27853. To conserve the purity of cultures and to enable their reproducibility, cryovials of all microbial strains in the medium were set up and stored at −80 °C. Pre-cultures of each bacterial strain were prepared in Mueller Hinton Broth (MHB) and incubated at 37 °C for 3–5 h. The turbidity of bacterial cell suspension was calibrated to 0.5 McFarland Standard by the spectrophotometric method (OD 625 nm 0.08–0.10), as indicated in the CLSI protocol M7-A9 and, further, the standardized suspension was diluted (1:100) with MHB to reach 1–2 × 10^6 CFU/mL. All wells were seeded with 100 µl of the mentioned final inoculum, and some wells contained only inoculated broth as control growth. […] The MICs were determined by using the assay repeated twice in triplicate. Throughout the study, norfloxacin was used as reference antibiotic. Appropriate controls involved norfloxacin for bacteria as international reference standard. […]

Staphylococcus aureus = experiment: MIC by broth microdilution, S. aureus (strain not given); assay type: cell-based; details: strain not specified (best value among the ATCC strains), read-out: MIC against S. aureus
Protocol: as §2, §3

P. aeruginosa ATCC 27853 [4] = experiment: MIC by broth microdilution (CLSI); assay type: cell-based; details: Pseudomonas aeruginosa, ATCC27853; Gram-negative; 37 °C, 24 h, Mueller Hinton Broth
Protocol: as §2, §3

K. pneumoniae ATCC 13883 [5] = experiment: MIC by broth microdilution (CLSI); assay type: cell-based; details: Klebsiella pneumoniae, ATCC13883; Gram-negative; 37 °C, 24 h, Mueller Hinton Broth; read-out: MIC K.p. 13883
Protocol: as §2, §3

S. aureus ATCC 29213 [6] = experiment: MIC by broth microdilution (CLSI); assay type: cell-based, Staphylococcus aureus; details: Staphylococcus aureus, ATCC29213; Gram-positive; 37 °C, 24 h, Mueller Hinton Broth
Protocol: as §2, §3

S. aureus ATCC 6538 = experiment: MIC by broth microdilution (CLSI); assay type: cell-based, Staphylococcus aureus; details: Staphylococcus aureus, ATCC6538; Gram-positive; 37 °C, 24 h, Mueller Hinton Broth
Protocol: as §2, §3

S. aureus ATCC 6538P = experiment: MIC by broth microdilution (CLSI); assay type: cell-based, Staphylococcus aureus; details: Staphylococcus aureus, ATCC6538P; Gram-positive; 37 °C, 24 h, Mueller Hinton Broth
Protocol: as §2, §3

[7] = tested on: HeLa uterine cancer cells; experiment: MTT cell viability assay; assay type: cell-based; details: Homo sapiens, 72 h, mean ± SD of three independent experiments
Text: as §1
(§4) Cell viability was determined using the 3-(4,5-dimethylthiazol-2-y1)-2,5-diphenyltetrazolium bromide (MTT, Sigma-Aldrich, Milan, Italy) assay. Cells were seeded on 48-well plates and grown in complete medium. Before treatment, cells were starved in serum free medium for 24 h to allow cell cycle synchronization. […] Data are representative of three independent experiments; standard deviations (SD) are shown.

[8] = tested on: MCF-7 breast cancer cells; experiment: MTT cell viability assay; assay type: cell-based; details: Homo sapiens, MCF7, 72 h, mean ± SD of three independent experiments
Text: as §1, §4

[9] = tested on: MDA-MB-231 breast cancer cells; experiment: MTT cell viability assay; assay type: cell-based; details: Homo sapiens, 72 h, mean ± SD of three independent experiments
Text: as §1, §4

[10] = tested on: Ishikawa uterine cancer cells; experiment: MTT cell viability assay; assay type: cell-based; details: Homo sapiens, 72 h, mean ± SD of three independent experiments
Text: as §1, §4

[11] = tested on: A2058 melanoma epithelial cells; experiment: MTT cell viability assay; assay type: cell-based; details: Homo sapiens, 72 h, mean ± SD of three independent experiments
Text: as §1, §4

[12] = tested on: Hek-293 embryonic kidney epithelial cells; experiment: MTT cell viability assay; assay type: cell-based; details: Homo sapiens, HEK293, normal cells, 72 h, mean ± SD of three independent experiments
Text: as §1, §4

[13] = tested on: MCF-10A mammary epithelial cells; experiment: MTT cell viability assay; assay type: cell-based; details: Homo sapiens, normal cells, 72 h, mean ± SD of three independent experiments
Text: as §1, §4

E. coli 25922 [14] = tested on: E. coli 25922; design: method as in earlier work; details: reference antibiotic, values according to CLSI (2012) ref 26; cited from earlier work
K. pneumoniae ATCC 13883 [15] = tested on: K. pneumoniae ATCC 13883; design: method as in earlier work; details: reference antibiotic, values according to CLSI (2012) ref 26; cited from earlier work
P. aeruginosa ATCC 27853 [16] = tested on: P. aeruginosa ATCC 27853; design: method as in earlier work; details: reference antibiotic, values according to CLSI (2012) ref 26; cited from earlier work
S. aureus ATCC 29213 [17] = tested on: S. aureus ATCC 29213; design: method as in earlier work; details: reference antibiotic, values according to CLSI (2012) ref 26; cited from earlier work
E. faecalis ATCC 29212 [18] = tested on: E. faecalis ATCC 29212; design: method as in earlier work; details: reference antibiotic, values according to CLSI (2012) ref 26; cited from earlier work

| MIC (E. coli 25922 [1]) [µg/mL] | IC50 [2] [µg/mL] | MIC (E. faecalis ATCC 29212 [3]) [µg/mL] | melting point [°C] | MIC (Staphylococcus aureus) [µg/mL] | MIC (P. aeruginosa ATCC 27853 [4]) [µg/mL] | MIC (K. pneumoniae ATCC 13883 [5]) [µg/mL] | MIC (S. aureus ATCC 29213 [6]) [µg/mL] | MIC (S. aureus ATCC 6538) [µg/mL] | MIC (S. aureus ATCC 6538P) [µg/mL] | IC50 [7] [µg/mL] | IC50 [8] [µg/mL] | IC50 [9] [µg/mL] | IC50 [10] [µg/mL] | IC50 [11] [µg/mL] | SMILES | IC50 [12] [µg/mL] | IC50 [13] [µg/mL] | further results |
| --- | --- | --- | --- | --- | --- | --- | --- | --- | --- | --- | --- | --- | --- | --- | --- | --- | --- | --- |
| > 256 | > 200 | 32 (≈ 126 µM) | 242 to 243 | 16 (≈ 62.9 µM) | > 256 | > 256 | > 256 | 16 (≈ 62.9 µM) | 16 (≈ 62.9 µM) | > 200 | > 200 | > 200 | > 200 | > 200 | Cc1ccc(NC(=O)Nc2c(C)cccc2C)cc1 [1ab, 1-(2,6-Dimethylphenyl)-3-p-tolylurea] | > 200 | > 200 |  |
| > 256 | > 200 | 32 (≈ 116 µM) | 244 to 245 | 16 (≈ 58.2 µM) | > 256 | > 256 | 256 (≈ 932 µM) | 16 (≈ 58.2 µM) | 16 (≈ 58.2 µM) | > 200 | > 200 | > 200 | > 200 | > 200 | Cc1cccc(C)c1NC(=O)Nc1ccc(Cl)cc1 [1bc, 1-(2,6-Dimethylphenyl)-3-(4-chlorophenyl)urea] | > 200 | > 200 |  |
| 256 (≈ 811 µM) | 0.64 to 1.68 (≈ 2.03 to 5.32 µM) | 64 (≈ 203 µM) |  | 16 (≈ 50.7 µM) | 256 (≈ 811 µM) | 256 (≈ 811 µM) | 16 (≈ 50.7 µM) | 128 (≈ 406 µM) | 16 (≈ 50.7 µM) | 1.01 ± 1.1 (≈ 3.2 µM) | 0.64 ± 0.5 (≈ 2.03 µM) | 0.89 ± 0.8 (≈ 2.82 µM) | 1.68 ± 0.9 (≈ 5.32 µM) | 0.89 ± 0.7 (≈ 2.82 µM) | O=C(Nc1ccc(Cl)cc1)Nc1ccc(Cl)c(Cl)c1 [1ce (TCC), 1-(3,4-Dichlorophenyl)-3-(4-chlorophenyl)urea, reference compound] | 1.6 ± 0.8 (≈ 5.07 µM) | 1.43 ± 0.7 (≈ 4.53 µM) |  |
|  |  |  |  |  |  |  |  |  |  |  |  |  |  |  | CCn1cc(C(=O)O)c(=O)c2cc(F)c(N3CCNCC3)cc21 [NRF, norfloxacin] |  |  | MIC E.c. 25922 (E. coli 25922 [14]): 0.03 to 0.12 µg/mL; MIC K.p. 13883 (K. pneumoniae ATCC 13883 [15]): 0.5 to 1 µg/mL; MIC P. a. 27853 (P. aeruginosa ATCC 27853 [16]): 1 to 4 µg/mL; MIC S.a. 29213 (S. aureus ATCC 29213 [17]): 0.5 to 2 µg/mL; MIC E.f. 29212 (E. faecalis ATCC 29212 [18]): 2 to 8 µg/mL |
